{
  "source": "patent US20250034212A1",
  "about": "“PEPTIDE” (PEPTIDREAM INC., priority 2021, published 2025)",
  "molecules": {"B1": {"name": "TGFb1_012 (peptide)", "peptide": "{CH2CO}-F[1Nal]VVNV[4Pal]DD[Gly(NCH2CH2Ph)]V[1Nal]YH[KCOpipzaa]CG-NH2", "modifications": "thioether N-16", "SMILES": "CC(C)[C@@H]1NC(=O)CN(CCc2ccccc2)C(=O)[C@H](CC(=O)O)NC(=O)[C@H](CC(=O)O)NC(=O)[C@H](Cc2ccncc2)NC(=O)[C@H](C(C)C)NC(=O)[C@H](CC(N)=O)NC(=O)[C@H](C(C)C)NC(=O)[C@H](C(C)C)NC(=O)[C@H](Cc2cccc3ccccc23)NC(=O)[C@H](Cc2ccccc2)NC(=O)CSC[C@@H](C(=O)NCC(N)=O)NC(=O)[C@H](CCCCNC(=O)N2CCN(CC(=O)O)CC2)NC(=O)[C@H](Cc2c[nH]cn2)NC(=O)[C@H](Cc2ccc(O)cc2)NC(=O)[C@H](Cc2cccc3ccccc23)NC1=O", "notes": "cyclic peptide; C-terminal G is a linker; also called TGF-β1_012"}},
  "key": {"recombinant human TGF-β1 [1]": {"molecular_target": "T1, recombinant human TGF-β1 (Homo sapiens, UniProt P01137)", "T1 construct": "purchased R&D systems", "T1 sequence (P01137 279-390 limits assumed)": "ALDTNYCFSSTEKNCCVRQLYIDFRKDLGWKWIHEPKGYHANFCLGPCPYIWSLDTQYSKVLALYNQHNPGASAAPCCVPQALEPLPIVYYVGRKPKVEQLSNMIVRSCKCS", "experiment": "SBE reporter assay in SBE reporter-HEK293 cells, TGF-β1 stimulation", "format": "cell-based", "summary_of_the_method": "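SBE luciferase reporter HEK293 cells in 0.5% FBS medium, preincubated 20 min with peptide, then stimulated 18 h with 0.13 nM recombinant human TGF-β1. Luminescence read; inhibition scaled with maximal TGF-β signal as 0% and unstimulated as 100%.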"}, "recombinant human TGF-β2": {"molecular_target": "T2, recombinant human TGF-β2 (Homo sapiens, UniProt P61812)", "T2 construct": "purchased R&D systems", "T2 sequence (P61812 303-414 limits assumed)": "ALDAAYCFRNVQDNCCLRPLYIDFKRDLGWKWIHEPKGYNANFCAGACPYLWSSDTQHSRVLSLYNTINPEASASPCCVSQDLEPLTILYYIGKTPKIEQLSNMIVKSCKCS", "experiment": "SBE reporter assay in SBE reporter-HEK293 cells, TGF-β2 stimulation", "format": "cell-based", "conditions": "FIG. 1", "experimental": "In addition, the selectivity of each peptide for TGF-β isoforms (TGF-β1 and β2) is checked. For this purpose, the inhibitory activity against TGF-β1 and TGF-β2 was evaluated using the peptide consisting of the amino acid sequence set forth in SEQ ID NO: 13 synthesized in Example 2.\nSBE reporter-HEK293 cells were cultured in E-MEM (Wako) containing 10% FBS (Sigma). The cells were detached using Accutase (Innovative Cell Technologies), suspended in E-MEM containing 0.5% FBS, seeded onto a 96-well plate(s) at a concentration of 45,000 cells per well, and cultured overnight. The next day, the peptide was added and allowed to stand for 20 min, and recombinant human TGF-β1 (R&D systems) or recombinant human TGF-β2 (R&D systems) was then added at 0.13 nM and cultured for 18 hours.\nThereafter, luciferase assay ONE-Glo reagent was added to each well and the plate was shaken for 5 min. A SpectraMax Paradigm multimode microplate reader (Molecular Devices) was then used for signal detection. The obtained signals were analyzed by GraphPad Prism. The inhibitory activity of the peptide was calculated while the maximum signal induced by TGF-β was set to 0% inhibition and no stimulation was set to 100% inhibition."}, "recombinant human TGF-β1 [2]": {"molecular_target": "T1, recombinant human TGF-β1", "experiment": "SPR intermolecular interaction test, TGF-β1 immobilized on CM3 sensor chip (Biacore T200)", "format": "binding", "conditions": "Single Cycle Kinetics, human TGF-β1", "experimental": "In this Example, (1) the activity of binding to TGF-β for various peptides consisting of the amino acid sequences set forth in SEQ ID NOs: 2-33 synthesized in Examples 1 to 5 and 7 was evaluated. (2) The activity and selectivity of binding of the peptide consisting of the amino acid sequence set forth in SEQ ID NO: 13 synthesized in Example 2 against two isoforms of TGF-β (TGF-β1 and β2) were checked. For this purpose, the intermolecular interaction of each peptide against TGF-β was tested by surface plasmon resonance (SPR) in the method described below. Specific test methods are described below.\nA CM3 sensor chip (Global Life Science Technologies Japan Co., Ltd.) was inserted into a BiacoreT200 (Global Life Science Technologies Japan Co., Ltd.). Three priming runs were performed using running buffer: HBS-EP+ (Global Life Science Technologies Japan Co., Ltd.). The system was then equilibrated at a flow rate of 30 μL/min.\nSubsequently, 50 μL of 60 mM EDC solution (Global Life Science Technologies Japan Co., Ltd.) and 50 μL of 650 mM NHS solution (Global Life Science Technologies Japan Co., Ltd.) were mixed. Next, the reaction was carried out at a flow rate of 10 μL/min for 420 seconds. Then, 150 μL of 0.2 μM TGF-β solution diluted in 10 mM acetic acid solution (pH 5.0) was prepared and reacted at a flow rate of 10 μL/min for 420 seconds to immobilize TGF-β on the CM3 sensor chip. TGF-β was human-derived TGF-β1 or β2 (recombinant human TGF-β1, 2) and was obtained from R&D systems. After immobilization, capping was performed by reacting with 1.0 M ethanolamine aqueous solution (Global Life Science Technologies Japan Co., Ltd.) at a flow rate of […] for 420 seconds.\nA liquid prepared by dissolving each peptide at 10 mM in DMSO solution was diluted with running buffer to prepare a peptide-dissolved solution at a final concentration of 10 μM. Subsequently, 50 nM, 25 nM, 12.5 nM, 5 nM, and 2.5 nM peptide solutions were prepared. Using the above samples, the kinetics of each peptide against TGF-β was obtained by SPR measurement.\nThe kinetics evaluation model was Single Cycle Kinetics, and curve fitting was performed using Biacore T200 Evaluation Software Version 3.0 (Global Life Science Technologies Japan Co., Ltd.). The binding of various peptides to TGF-β was evaluated by performing least-squares curve fitting on the obtained sensorgram to calculate the KD value."}, "[3]": {"molecular_target": "T3, recombinant human TGF-β1 (R&D systems) (human, UniProt P01137 279-390)", "T3 sequence (P01137 279-390 limits assumed)": "as the sequence (P01137 279-390 limits assumed) above", "experiment": "cell-based or functional assay"}, "[4]": {"molecular_target": "T4, recombinant human TGF-β2 (R&D systems) (human, UniProt P61812 303-414)", "T4 sequence (looked up)": "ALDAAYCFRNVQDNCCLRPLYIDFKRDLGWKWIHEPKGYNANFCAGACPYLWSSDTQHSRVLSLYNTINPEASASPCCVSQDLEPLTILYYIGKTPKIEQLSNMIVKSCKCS", "experiment": "cell-based or functional assay"}, "[5]": {"molecular_target": "T3, recombinant human TGF-β1 (R&D systems)", "experiment": "cell-based or functional assay", "remark": "listed apart in the source"}, "[6]": {"molecular_target": "T4, recombinant human TGF-β2 (R&D systems)", "experiment": "SPR, TGF-β2 immobilised, single cycle kinetics; target TGF-β2, not TGF-β1"}, "[7]": {"molecular_target": "T3, recombinant human TGF-β1 (R&D systems)", "experiment": "cell-based or functional assay", "remark": "listed apart in the source"}},
  "note": "Starred links: 1 amine or outer side, 2 acyl side, 3 side chain; linkers in the order of their positions; H or OH if unused. Positions of bridges follow the written chain, without caps; N, C: chain ends. Non-standard residues stand in square brackets, D forms with d. Residues, ends and D or L forms follow the SMILES beside them. Groups on a side chain read outwards from the residue. *: point of attachment. KCOpipzaa = N6-(4-(carboxymethyl)piperazine-1-carbonyl)-L-lysine, O=C(NCCCC[C@H](N[*:1])C(=O)[*:2])N1CCN(CC(=O)[*:3])CC1; Piperazinyl(4-CH2COOH) = O=C(O)CN1CCN(*)CC1; 1Nal = N[C@@H](Cc1cccc2ccccc12)C(=O)O; Gly(NCH2CH2Ph) = O=C(O)CNCCc1ccccc1; 4Pal = N[C@@H](Cc1ccncc1)C(=O)O; CO = O=C([*:1])[*:2]",
  "data": [
    {"molecule": "CC(C)[C@@H]1NC(=O)CN(CCc2ccccc2)C(=O)[C@H](CC(=O)O)NC(=O)[C@H](CC(=O)O)NC(=O)[C@H](Cc2ccncc2)NC(=O)[C@H](C(C)C)NC(=O)[C@H](CC(N)=O)NC(=O)[C@H](C(C)C)NC(=O)[C@H](C(C)C)NC(=O)[C@H](Cc2cccc3ccccc23)NC(=O)[C@H](Cc2ccccc2)NC(=O)CSC[C@@H](C(=O)NCC(N)=O)NC(=O)[C@H](CCCCNC(=O)N2CCN(CC(=O)O)CC2)NC(=O)[C@H](Cc2c[nH]cn2)NC(=O)[C@H](Cc2ccc(O)cc2)NC(=O)[C@H](Cc2cccc3ccccc23)NC1=O", "note": "[TGFb1_012] ({CH2CO}-F[1Nal]VVNV[4Pal]DD[Gly(NCH2CH2Ph)]V[1Nal]YHK([CO-Piperazinyl(4-CH2COOH)])CG-NH2; thioether N-16)", "values": [
      {"measurement": "TGF-β1 antagonist / inhibitory activity (in words)", "setting": "recombinant human TGF-β1 [1]; SBE reporter assay, FIG. 1 and Tables 2 and 3", "value": "inhibits not only TGF-β1 but also TGF-β2"},
      {"measurement": "inhibition at 62 pM", "setting": "recombinant human TGF-β1 [1]; peptide 0.062 nM, TGF-β1 0.13 nM, 18 hours", "value": 4.18, "unit": "%"},
      {"measurement": "inhibition at 75 pM", "setting": "recombinant human TGF-β1 [1]; peptide 0.075 nM, TGF-β1 0.13 nM, 18 hours", "value": 10.1, "unit": "%"},
      {"measurement": "inhibition at 0.000185 µM", "setting": "recombinant human TGF-β1 [1]; peptide 0.185 nM, TGF-β1 0.13 nM, 18 hours", "value": 19.8, "unit": "%"},
      {"measurement": "inhibition at 0.00056 µM", "setting": "recombinant human TGF-β1 [1]; peptide 0.56 nM, TGF-β1 0.13 nM, 18 hours", "value": 48.4, "unit": "%"},
      {"measurement": "inhibition at 0.00075 µM", "setting": "recombinant human TGF-β1 [1]; peptide 0.75 nM, TGF-β1 0.13 nM, 18 hours", "value": 65.2, "unit": "%"},
      {"measurement": "inhibition at 0.0017 µM", "setting": "recombinant human TGF-β1 [1]; peptide 1.7 nM, TGF-β1 0.13 nM, 18 hours", "value": 80.9, "unit": "%"},
      {"measurement": "inhibition at 0.005 µM", "setting": "recombinant human TGF-β1 [1]; peptide 5.0 nM, TGF-β1 0.13 nM, 18 hours", "value": 94.4, "unit": "%"},
      {"measurement": "inhibition at 0.0075 µM", "setting": "recombinant human TGF-β1 [1]; peptide 7.5 nM, TGF-β1 0.13 nM, 18 hours", "value": 96, "unit": "%"},
      {"measurement": "inhibition at 0.015 µM", "setting": "recombinant human TGF-β1 [1]; peptide 15.0 nM, TGF-β1 0.13 nM, 18 hours", "value": 98.7, "unit": "%"},
      {"measurement": "inhibition at 0.075 µM", "setting": "recombinant human TGF-β1 [1]; peptide 75.0 nM, TGF-β1 0.13 nM, 18 hours", "value": 99.5, "unit": "%"},
      {"measurement": "inhibitory activity against TGF-β2 (in words)", "setting": "recombinant human TGF-β2", "value": "inhibits not only TGF-β1 but also TGF-β2"},
      {"measurement": "Kd", "setting": "recombinant human TGF-β1 [2]", "value": 0.86, "unit": "nM"}
    ]},
    {"molecule": "B1", "values": [
      {"measurement": "SBE reporter % inhibition, peptide 0.075 nM", "setting": "[3]", "value": 10.1, "unit": "%"},
      {"measurement": "SBE reporter % inhibition, peptide 0.75 nM", "setting": "[3]", "value": 65.2, "unit": "%"},
      {"measurement": "SBE reporter % inhibition, peptide 7.5 nM", "setting": "[3]", "value": 96, "unit": "%"},
      {"measurement": "SBE reporter % inhibition, peptide 75.0 nM", "setting": "[3]", "value": 99.5, "unit": "%"},
      {"measurement": "IC50 (read off the curve) (SBE reporter assay in SBE reporter-HEK293 cells; TGF-β2 at 0.13 nM)", "setting": "[4]", "value": "~6", "unit": "nM"},
      {"measurement": "IC50 (read off the curve) (SBE reporter assay in SBE reporter-HEK293 cells; TGF-β1 at 0.13 nM)", "setting": "[5]", "value": "~0.7", "unit": "nM"},
      {"measurement": "Kd", "setting": "[6]", "value": 2, "unit": "nM"},
      {"measurement": "SBE reporter % inhibition, peptide 0.062 nM", "setting": "[7]", "value": 4.18, "unit": "%"},
      {"measurement": "SBE reporter % inhibition, peptide 0.185 nM", "setting": "[7]", "value": 19.8, "unit": "%"},
      {"measurement": "SBE reporter % inhibition, peptide 0.56 nM", "setting": "[7]", "value": 48.4, "unit": "%"},
      {"measurement": "SBE reporter % inhibition, peptide 1.7 nM", "setting": "[7]", "value": 80.9, "unit": "%"},
      {"measurement": "SBE reporter % inhibition, peptide 5.0 nM", "setting": "[7]", "value": 94.4, "unit": "%"},
      {"measurement": "SBE reporter % inhibition, peptide 15.0 nM", "setting": "[7]", "value": 98.7, "unit": "%"}
    ]}
  ]
}
